Laboratory results reported in PubChem BioAssay (NCI).
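Following 48 hours of exposure in 96-well plates, responses at five concentrations were used to interpolate endpoints linearly. GI50 marks 50% less growth. The concentration for full growth arrest is given as TGI.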

How the values were obtained:
Assay in all cases: inhibition of tumour cell growth, NCI panel, 48 h; in the data active = GI50 below about 0.43 µM; inactive = the rest
SF-295 CNS = system: SF-295 CNS
SF-539 CNS = system: SF-539 CNS
A549 NSCLC = system: A549 NSCLC
RXF 393 renal = system: RXF 393 renal
OVCAR-5 ovarian = system: OVCAR-5 ovarian
SK-MEL-2 melanoma = system: SK-MEL-2 melanoma
HCC-2998 colon = system: HCC-2998 colon
UO-31 renal = system: UO-31 renal
HOP-92 NSCLC = system: HOP-92 NSCLC
OVCAR-3 ovarian = system: OVCAR-3 ovarian
COLO 205 colon = system: COLO 205 colon
NCI-H23 lung = system: NCI-H23 lung
NCI-H522 lung = system: NCI-H522 lung
UACC-257 melanoma = system: UACC-257 melanoma
EKVX NSCLC = system: EKVX NSCLC
TK-10 renal = system: TK-10 renal
HL-60(TB) leukemia = system: HL-60(TB) leukemia
T-47D breast = system: T-47D breast
ACHN renal = system: ACHN renal
HS 578T breast = system: HS 578T breast
PC-3 prostate = system: PC-3 prostate
KM12 colon = system: KM12 colon
K-562 leukemia = system: K-562 leukemia
DU-145 prostate = system: DU-145 prostate
SR leukemia = system: SR leukemia
HOP-62 NSCLC = system: HOP-62 NSCLC
786-0 renal = system: 786-0 renal
SNB-19 CNS = system: SNB-19 CNS
MCF7 breast = system: MCF7 breast
MOLT-4 leukemia = system: MOLT-4 leukemia
SF-268 CNS = system: SF-268 CNS
A498 renal = system: A498 renal
CAKI-1 renal = system: CAKI-1 renal
RPMI-8226 leukemia = system: RPMI-8226 leukemia
U251 CNS = system: U251 CNS
LOX IMVI melanoma = system: LOX IMVI melanoma
MDA-MB-231 breast = system: MDA-MB-231 breast
SNB-75 CNS = system: SNB-75 CNS
NCI-H226 lung = system: NCI-H226 lung
NCI-H460 lung = system: NCI-H460 lung
HT29 colon = system: HT29 colon
M14 melanoma = system: M14 melanoma
UACC-62 melanoma = system: UACC-62 melanoma
OVCAR-8 ovarian = system: OVCAR-8 ovarian
IGROV1 ovarian = system: IGROV1 ovarian
SN12C renal = system: SN12C renal
BT-549 breast = system: BT-549 breast
CCRF-CEM leukemia = system: CCRF-CEM leukemia
NCI/ADR-RES ovarian = system: NCI/ADR-RES ovarian
SK-MEL-28 melanoma = system: SK-MEL-28 melanoma
MALME-3M melanoma = system: MALME-3M melanoma
OVCAR-4 ovarian = system: OVCAR-4 ovarian
SK-MEL-5 melanoma = system: SK-MEL-5 melanoma
HCT-116 colon = system: HCT-116 colon
HCT-15 colon = system: HCT-15 colon
SK-OV-3 ovarian = system: SK-OV-3 ovarian
MDA-MB-435 = system: MDA-MB-435
SW-620 colon = system: SW-620 colon

CCN(CC)S(=O)(=O)c1ccc(-c2nc(C(Cl)Cl)nc3cc(C)nn23)cc1
5.72 µM: TGI (RPMI-8226 leukemia)
5.96 µM: TGI (HOP-92 NSCLC)
6.77 µM: TGI (SF-295 CNS)
5.17 µM: TGI (RXF 393 renal)
4.47 µM: TGI (NCI-H460 lung)
8.66 µM: TGI (UACC-257 melanoma)
5.35 µM: TGI (EKVX NSCLC) | TGI (KM12 colon)
3.47 µM: TGI (HCC-2998 colon)
4.17 µM: TGI (COLO 205 colon)
4.96 µM: TGI (NCI-H23 lung)
5.12 µM: TGI (ACHN renal)
7.4 µM: TGI (HOP-62 NSCLC)
9.24 µM: TGI (A498 renal)
inactive: GI50 (SF-295 CNS) 2.13 µM | GI50 (SF-539 CNS) 3.07 µM | GI50 (A549 NSCLC) 1.88 µM | GI50 (RXF 393 renal) 1710 nM | GI50 (OVCAR-5 ovarian) 3.07 µM | GI50 (SK-MEL-2 melanoma) > 100000 nM | GI50 (HCC-2998 colon) 1700 nM | GI50 (UO-31 renal) 2780 nM | GI50 (HOP-92 NSCLC) 1900 nM | GI50 (OVCAR-3 ovarian) 1850 nM | GI50 (COLO 205 colon) 1850 nM | GI50 (NCI-H23 lung) 2010 nM | GI50 (NCI-H522 lung) 4.55 µM | GI50 (UACC-257 melanoma) 2590 nM | GI50 (EKVX NSCLC) 2050 nM | GI50 (TK-10 renal) 3030 nM | GI50 (HL-60(TB) leukemia) 2600 nM | GI50 (T-47D breast) 4030 nM | GI50 (ACHN renal) 1.87 µM | GI50 (HS 578T breast) 2400 nM | GI50 (PC-3 prostate) 2160 nM | GI50 (KM12 colon) 1890 nM | GI50 (K-562 leukemia) 2940 nM | GI50 (DU-145 prostate) 1700 nM | GI50 (SR leukemia) 2.4 µM | GI50 (HOP-62 NSCLC) 2200 nM | GI50 (786-0 renal) > 100000 nM | GI50 (SNB-19 CNS) 2900 nM | GI50 (MCF7 breast) 2840 nM | GI50 (MOLT-4 leukemia) 3320 nM | GI50 (SF-268 CNS) 3320 nM | GI50 (A498 renal) 2220 nM | GI50 (CAKI-1 renal) 1960 nM | GI50 (RPMI-8226 leukemia) 2.11 µM | GI50 (U251 CNS) 2190 nM | GI50 (LOX IMVI melanoma) 6.32 µM | GI50 (MDA-MB-231 breast) 2550 nM | GI50 (SNB-75 CNS) 6.91 µM | GI50 (NCI-H226 lung) 5.36 µM | GI50 (NCI-H460 lung) 1850 nM
5.57 µM: TGI (CAKI-1 renal)
4.6 µM: TGI (A549 NSCLC)
> 100000 nM: TGI (HL-60(TB) leukemia) | TGI (MOLT-4 leukemia) | TGI (MDA-MB-231 breast) | TGI (SNB-75 CNS)
7.41 µM: TGI (PC-3 prostate)
> 100 µM: TGI (SF-539 CNS) | TGI (OVCAR-5 ovarian) | TGI (SK-MEL-2 melanoma) | TGI (UO-31 renal) | TGI (NCI-H522 lung) | TGI (TK-10 renal) | TGI (T-47D breast) | TGI (K-562 leukemia) | TGI (SR leukemia) | TGI (786-0 renal) | TGI (SNB-19 CNS) | TGI (MCF7 breast) | TGI (SF-268 CNS) | TGI (U251 CNS) | TGI (LOX IMVI melanoma) | TGI (NCI-H226 lung)
4.33 µM: TGI (OVCAR-3 ovarian)
7.08 µM: TGI (HS 578T breast)
4.49 µM: TGI (DU-145 prostate)

O=C1CCC(N2C(=O)c3ccc(NS(=O)(=O)c4ccccc4OC(F)(F)F)cc3C2=O)C(=O)N1 (stereo unspecified)
> 68 µM: TGI (HCT-15 colon)
> 100 µM: TGI (SF-295 CNS) | TGI (HT29 colon) | TGI (SF-539 CNS) | TGI (A549 NSCLC) | TGI (OVCAR-5 ovarian) | TGI (M14 melanoma) | TGI (UACC-62 melanoma) | TGI (OVCAR-8 ovarian) | TGI (NCI-H23 lung) | TGI (NCI-H522 lung) | TGI (UACC-257 melanoma) | TGI (EKVX NSCLC) | TGI (IGROV1 ovarian) | TGI (TK-10 renal) | TGI (SN12C renal) | TGI (ACHN renal) | TGI (KM12 colon) | TGI (K-562 leukemia) | TGI (DU-145 prostate) | TGI (SR leukemia) | TGI (NCI/ADR-RES ovarian) | TGI (SK-MEL-28 melanoma) | TGI (OVCAR-4 ovarian) | TGI (786-0 renal) | TGI (SNB-19 CNS) | TGI (MCF7 breast) | TGI (HCT-116 colon) | TGI (SF-268 CNS) | TGI (SK-OV-3 ovarian) | TGI (MDA-MB-435) | TGI (CAKI-1 renal) | TGI (RPMI-8226 leukemia) | TGI (SW-620 colon) | TGI (U251 CNS) | TGI (LOX IMVI melanoma) | TGI (NCI-H226 lung) | TGI (NCI-H460 lung)
1.43 µM: TGI (HS 578T breast)
3.49 µM: TGI (MALME-3M melanoma)
341 nM: TGI (MOLT-4 leukemia)
350 nM: TGI (HL-60(TB) leukemia)
7.95 µM: TGI (RXF 393 renal)
2680 nM: TGI (SNB-75 CNS)
active: GI50 (UO-31 renal) 306 nM | GI50 (OVCAR-8 ovarian) 159 nM | GI50 (HOP-92 NSCLC) 22 nM | GI50 (HL-60(TB) leukemia) 27.9 nM | GI50 (T-47D breast) 165 nM | GI50 (BT-549 breast) 120 nM | GI50 (HS 578T breast) 58.2 nM | GI50 (CCRF-CEM leukemia) 31.2 nM | GI50 (MALME-3M melanoma) 147 nM | GI50 (HOP-62 NSCLC) 187 nM | GI50 (MOLT-4 leukemia) 31.4 nM | GI50 (HCT-15 colon) 100 nM | GI50 (A498 renal) 266 nM | GI50 (SW-620 colon) 312 nM | GI50 (MDA-MB-231 breast) 82 nM | GI50 (SNB-75 CNS) 0.11 µM
2260 nM: TGI (MDA-MB-231 breast)
> 27 µM: TGI (SK-MEL-5 melanoma)
inactive: GI50 (SF-295 CNS) 4.38 µM | GI50 (HT29 colon) 7.7 µM | GI50 (SF-539 CNS) > 50.7 µM | GI50 (A549 NSCLC) 7 µM | GI50 (RXF 393 renal) 609 nM | GI50 (OVCAR-5 ovarian) 12.6 µM | GI50 (M14 melanoma) 1590 nM | GI50 (SK-MEL-2 melanoma) 1670 nM | GI50 (HCC-2998 colon) 729 nM | GI50 (UACC-62 melanoma) 16.1 µM | GI50 (COLO 205 colon) 857 nM | GI50 (NCI-H23 lung) > 100000 nM | GI50 (UACC-257 melanoma) > 100000 nM | GI50 (EKVX NSCLC) > 100000 nM | GI50 (IGROV1 ovarian) 465 nM | GI50 (TK-10 renal) 2720 nM | GI50 (SN12C renal) 1140 nM | GI50 (ACHN renal) 8.7 µM | GI50 (PC-3 prostate) 455 nM | GI50 (KM12 colon) 1970 nM | GI50 (K-562 leukemia) 3010 nM | GI50 (DU-145 prostate) > 100000 nM | GI50 (SR leukemia) 10.8 µM | GI50 (NCI/ADR-RES ovarian) 700 nM | GI50 (SK-MEL-28 melanoma) 7.37 µM | GI50 (OVCAR-4 ovarian) 2610 nM | GI50 (786-0 renal) 668 nM | GI50 (SNB-19 CNS) 843 nM | GI50 (MCF7 breast) 1680 nM | GI50 (SK-MEL-5 melanoma) 2560 nM | GI50 (HCT-116 colon) > 100 µM | GI50 (SF-268 CNS) 911 nM | GI50 (SK-OV-3 ovarian) 2600 nM | GI50 (MDA-MB-435) 6.34 µM | GI50 (CAKI-1 renal) 456 nM | GI50 (RPMI-8226 leukemia) 7.63 µM | GI50 (U251 CNS) > 100000 nM | GI50 (LOX IMVI melanoma) > 100 µM | GI50 (NCI-H226 lung) 1.12 µM | GI50 (NCI-H460 lung) > 100000 nM
1.75 µM: TGI (A498 renal)
2.46 µM: TGI (HOP-62 NSCLC)
> 27.8 µM: TGI (PC-3 prostate)
1610 nM: TGI (BT-549 breast)
38.4 µM: TGI (SK-MEL-2 melanoma)
> 29.1 µM: TGI (UO-31 renal)
> 27.2 µM: TGI (COLO 205 colon)
> 70.8 µM: TGI (HCC-2998 colon)
0.161 µM: TGI (HOP-92 NSCLC)
